Here are results for nine compounds from article PMC5540946, “Stress-Driven Discovery of Novel Cryptic Antibiotics from a Marine Fungus Penicillium sp. BB1122” (Frontiers in Microbiology, 2017).

In brackets after ≈: the same amount, converted by molar mass. Read-outs that look alike come from different tables or passages of the source. A value given as a limit tells only on which side of the number the result lay.

For orientation: MBC means the lowest tested concentration that kills the bacteria rather than only halting them. By MIC is commonly meant the least concentration at which growth counts as inhibited. A word on the IC50: it is the concentration that gives 50% inhibition.

Type in all cases: cell-based
In assay [1] the test system is methicillin resistant Staphylococcus aureus (MRSA). Put plainly: Broth dilution antibacterial assay (MIC, MBC by subculture) against MRSA. The following applies: for MIC: 18 h. On the procedure: (§1) The conventional broth dilution assay was used to evaluate the antibacterial activities. Three clinical pathogens namely MRSA, P. aeruginosa [CMCC(B)10104], and K. pneumoniae [CMCC(B)46117] were cultured and left overnight to grow. Each pathogenic culture was then diluted in 0.9% saline to an inoculum density of 5 × 10^5 cfu by comparison with a McFarland standard. Tetracycline was dissolved in Mueller–Hinton broth with a starting concentration of 512 μg/mL and was used as positive control whereas methanol was used as negative control. A total of 125 μL of MHB was distributed into the 96-well plates. A total of 125 μL of the different samples were dispensed into well 1 and serially diluted across the plate. Ultimately, addition of 125 μL of the bacterial inoculum was performed and the plates were incubated at 37°C for 18 h. The bacteriostatic abilities of the compounds were noted as MICs which were done in triplicate. Five milligrams per milliliter of methanolic solution of 3-[4,5-dimethylthiazol-2-yl]-2,5-diphenyltetrazolium bromide (MTT; Lancaster) was used to detect bacterial growth by a change in color from yellow to blue ([Appendino et al., 2008]).
(§2) Ten microliters of broth with no visible growth were taken from the wells and sub-cultured on nutrient agar plates. The negative control consisted of nutrient agar and the inoculum which was then compared with the number of colonies on the agar. The bactericidal abilities of the compounds were noted as MBCs which was equal to the lowest concentration of the samples which killed 99.9% of the original inoculum ([Clinical and Laboratory Standards Institute, 2014]).
(Dilution methods test growth across graded concentrations, often in twofold steps.)

For assay [2], the system named is P. aeruginosa [CMCC(B)10104]. Briefly: Broth dilution antibacterial assay (MIC, MBC by subculture) against P. aeruginosa. Particulars: Pseudomonas aeruginosa; for MIC: 18 h, broth dilution, 37°C, triplicate; for MBC: lowest concentration killing 99.9% of original inoculum. The protocol:
as §1, §2

The test system of assay [3] is K. pneumoniae [CMCC(B)46117]. Put plainly: Broth dilution antibacterial assay (MIC, MBC by subculture) against K. pneumoniae. The following applies: Klebsiella pneumoniae. On the procedure:
as §1, §2

For assay [4], the system named is Human liver cell line LO2. Put plainly: Cytotoxicity assay (MTT). The following applies: normal liver cell line LO2, MTT, triplicate. On the procedure: Human liver cell line LO2 was obtained from the Institute of Biochemistry and Cell Biology (Chinese Academy of Sciences). LO2 cells were maintained in RPMI 1640 containing 10% fetal bovine serum (FBS), 100 units/mL penicillin and 100 units/mL streptomycin. All the cells were grown in a humidified cell incubator with an atmosphere of 5% CO2 at 37°C and subcultured with 0.25% trypsin + 0.02% EDTA. MTT, dimethyl sulfoxide (DMSO), ribonuclease (RNase), propidium iodide (PI), Annexin V-FITC/PI kit were obtained from Sigma. RPMI 1640, DMEM, FBS were purchased from Gibco. Hoechst, trypsin, and the pan caspase inhibitor z-VAD-FMK were obtained from Beyotime Institute of Biotechnology. Compounds were dissolved in DMSO and diluted to the proper concentrations before use, with the concentration of DMSO kept below 0.1% in all assays. Cell viability was measured by the MTT method as previously described, with some modifications ([Jiang et al., 2013]). Briefly, cells were seeded in 96-well microtiter plates at a density of 5 × 10^3 cells/well for 24 h. After drug treatment for the indicated times, cells were incubated with MTT (0.5 mg/mL) for 4 h. The formazan precipitate was dissolved in 150 μL DMSO, and the absorbance was detected at 490 nm with a Sunrise microplate reader (Tecan Group Ltd.). DMSO (0.1%) was used as negative control for all assays. Each test was performed in triplicate.

[5] abbreviates: broth dilution, 37°C, 18 h, triplicate.
Where [6] appears, read: lowest concentration killing 99.9% of original inoculum, read-out: MBC.
The mark [7] stands for this setting: lowest concentration killing 99.9% of original inoculum.

In the case of `COc1cc(=O)oc(C=CC=CC=CC(C)=CC2(C)OC(C)C(C)(O)C2O)c1C` (stereo not shown) [Compound 1, Neocitreoviridin], the MBC in assay [1] (Staphylococcus aureus) was 128 µg/mL (≈ 318 µM); in assay [2] (read-out: MBC), 8 µg/mL (≈ 19.9 µM); in assay [3] (setting [6]) it was 128 µg/mL (≈ 318 µM). In addition, the MIC in assay [1] (Staphylococcus aureus) was found to be 64 µg/mL (≈ 159 µM); in assay [2] (read-out: MIC) it was 4 µg/mL (≈ 9.94 µM); in assay [3] (setting [5]), 64 µg/mL (≈ 159 µM).
On to `COc1cc(=O)oc(C=CC=CC=CC(C)=CC2(C)OC(C)C(C)(O)C2O)c1C` (stereo not shown) [Compound 2, citreoviridin], for which the values for the MBC in assay [1] (setting [7]), in assay [2] and in assay [3] (setting [7]) were 128 µg/mL (≈ 318 µM), 16 µg/mL (≈ 39.8 µM) and 128 µg/mL (≈ 318 µM), respectively. For the same compound, the MIC in assay [2] is reported as 8 µg/mL (≈ 19.9 µM).
For `COc1cc(=O)oc(/C=C/C=C/C=C/[C@@]2(C)O[C@]3(C)[C@@H](O)[C@@](C)(O[C@@H]3C)[C@@H]2O)c1C` [Compound 3, epicitreoviridinol], the MBC in assay [1] (Staphylococcus aureus) was 2 µg/mL (≈ 4.78 µM); in assay [2] (read-out: MBC), 128 µg/mL (≈ 306 µM); in assay [3] (read-out: MBC) it was more than 128 µg/mL. Also, the MIC in assay [1] (Staphylococcus aureus) was 1 µg/mL (≈ 2.39 µM); in assay [2] (read-out: MIC) it was 64 µg/mL (≈ 153 µM); in assay [3] it was more than 128 µg/mL.
Take `COc1cc(=O)oc(/C=C/C=C/C=C/[C@@]2(C)O[C@@]3(C)[C@H](O)[C@](C)(O[C@H]3C)[C@@H]2O)c1C` [Compound 4, epiisocitreoviridinol]: the MBC in assay [1] (Staphylococcus aureus) was 128 µg/mL (≈ 306 µM); in assay [2] (read-out: MBC), 128 µg/mL (≈ 306 µM); in assay [3] (read-out: MBC), more than 128 µg/mL. Moreover, the MIC in assay [1] (Staphylococcus aureus) was 64 µg/mL (≈ 153 µM); in assay [2] (read-out: MIC) it was 64 µg/mL (≈ 153 µM); in assay [3], more than 128 µg/mL.
Consider `COc1cc(=O)oc(C=CC=CC=CC2(C)OC3(C)C(C)OC(C)(C2O)C3O)c1C` (stereo not shown) [Compound 5, 10Z-isocitreoviridinol], for which the MBC in assay [1] (Staphylococcus aureus) was found to be 2 µg/mL (≈ 4.78 µM); in assay [2] (read-out: MBC) it was 16 µg/mL (≈ 38.2 µM); in assay [3] (setting [6]) it was 128 µg/mL (≈ 306 µM). Also, the MIC came to 1 µg/mL (≈ 2.39 µM) in assay [1] (Staphylococcus aureus), 8 µg/mL (≈ 19.1 µM) in assay [2] (read-out: MIC) and 64 µg/mL (≈ 153 µM) in assay [3] (setting [5]).
Take `COc1cc(=O)oc(/C=C/C=C/C=C/[C@@]2(C)O[C@]3(C)[C@@H](O)[C@@](C)(O[C@@H]3C)[C@H]2O)c1C` [Compound 6, citreoviridinol]: the results for the MBC in assay [1] (Staphylococcus aureus), in assay [2] (read-out: MBC) and in assay [3] (read-out: MBC) were 8 µg/mL (≈ 19.1 µM), 128 µg/mL (≈ 306 µM) and more than 128 µg/mL, respectively. The MIC was 4 µg/mL (≈ 9.56 µM) in assay [1] (Staphylococcus aureus), 64 µg/mL (≈ 153 µM) in assay [2] (read-out: MIC) and more than 128 µg/mL in assay [3].
Take `COc1cc(=O)oc(C(O)C=CC=CC=C(C)C2OC3(C)C(C)OC2(C)C3O)c1C` (stereo not shown) [Compound 7, Penicillstressol]: the MBC in assay [1] (Staphylococcus aureus) was 1 µg/mL (≈ 2.39 µM); in assay [2] (read-out: MBC), 8 µg/mL (≈ 19.1 µM); in assay [3] (setting [6]), 128 µg/mL (≈ 306 µM). For the same compound, the results for the MIC in assay [1] (Staphylococcus aureus), in assay [2] (read-out: MIC) and in assay [3] (setting [5]) were 0.5 µg/mL (≈ 1.19 µM), 4 µg/mL (≈ 9.56 µM) and 64 µg/mL (≈ 153 µM), respectively. In addition, in assay [4] (Homo sapiens, read-out: IC50), the IC50 is more than 100 µg/mL.
In the case of `COc1cc(=O)oc(C(O)C=CC=CC=C(C)C2OC3(C)C(C)OC2(C)C3O)c1C` (stereo not shown) [Compound 8, Isopenicillstressol], the MBC in assay [1] (setting [7]) is 1 µg/mL (≈ 2.39 µM); in assay [2] it was 8 µg/mL (≈ 19.1 µM); in assay [3] (setting [7]), 128 µg/mL (≈ 306 µM). Also, the IC50 result in assay [4] is on record as “above 100 μg/mL”.
Take `CN(C)[C@@H]1C(O)=C(C(N)=O)C(=O)[C@@]2(O)C(O)=C3C(=O)c4c(O)cccc4[C@@](C)(O)[C@H]3C[C@@H]12` [Tetracycline, reference compound]: the MBC was 4 µg/mL (≈ 9 µM) in assay [1] (Staphylococcus aureus), 16 µg/mL (≈ 36 µM) in assay [2] (read-out: MBC) and 128 µg/mL (≈ 288 µM) in assay [3] (setting [6]). Besides, the MIC in assay [1] (Staphylococcus aureus) was 2 µg/mL (≈ 4.5 µM); in assay [1] (broth dilution, 37°C, triplicate) it was “around 2 µg/mL”; in assay [2] (read-out: MIC), 8 µg/mL (≈ 18 µM); in assay [3] (setting [5]) it was 64 µg/mL (≈ 144 µM).
